How the values were obtained:
human CRTH2 = molecular target: T1, human CRTH2 (Homo sapiens, UniProt Q9Y5Y4); assay: Measurement of Ca2+ mobilization in the human CRTH2-transfected L1.2 cell line (Assay 1); assay type: cell-based; settings: PGD2-induced Ca2+ mobilization in CRTH2-transfected L1.2 cells; compounds as yielded by solid phase synthesis, purity about 40 to 90%; read-out: Activity class
T1 construct: expressed in transfected cells; host or cells: L1.2 cells, pEAK expression vector, puromycin-selected
T1 sequence (Q9Y5Y4 1-395): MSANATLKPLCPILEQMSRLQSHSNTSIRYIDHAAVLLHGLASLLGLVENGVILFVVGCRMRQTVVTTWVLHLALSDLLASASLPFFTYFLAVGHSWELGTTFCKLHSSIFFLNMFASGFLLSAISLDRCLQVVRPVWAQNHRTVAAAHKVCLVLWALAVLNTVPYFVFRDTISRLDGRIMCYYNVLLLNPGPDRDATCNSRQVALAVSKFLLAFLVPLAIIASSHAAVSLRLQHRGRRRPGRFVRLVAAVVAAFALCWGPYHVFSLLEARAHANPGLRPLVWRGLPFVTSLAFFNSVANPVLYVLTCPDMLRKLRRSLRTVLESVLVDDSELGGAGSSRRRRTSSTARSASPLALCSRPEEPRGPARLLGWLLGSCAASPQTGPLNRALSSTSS
Outline: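 Human CRTH2 was stably expressed in L1.2 cells (puromycin-selected) loaded with Fluo-3AM (1 μM final) for 60 min at room temperature. Buffer was 20 mM HEPES pH 7.6, 0.1% BSA, 1 mM probenecid in Hanks'. Cells (2×10^5/well) got compound for 5 min at RT, with fluorescence at 480 nm. IC50 bins: A ≤10 nM, B ≤100 nM, C ≤500 nM, D above; samples were solid-phase products of about 40–90% purity.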

Structure (SMILES)	IC50 (human CRTH2) [nM]	melting point
COc1ccccc1/C=C/C(=O)Nc1ccc(Cc2nc(N(C)C)c(CC(=O)O)c(N3CCOCC3)n2)cc1 [Example 7-27]	< 10	125 to 128 °C
COc1ccc(C(=O)Nc2ccc(Cc3nc(Cl)c(CC(=O)O)c(N4CCCC4)n3)cc2)cc1[N+](=O)[O-] [Example 1-58]	< 10	118 °C
CCCCCC(=O)Nc1ccc(Cc2nc(Cl)c(CC(=O)O)c(N(C)CC(=O)NC3CCCC3)n2)cc1 [Example 1-12]	100 to 500	> 100 °C
CC(c1ccc(NC(=O)c2ccc(F)cc2)cc1)c1ncc(CC(=O)O)c(N(C)C)n1 (stereo not drawn) [Example 2-26]	< 10	114 to 117 °C
CN(C)c1nc(Cc2ccc(NC(=O)c3cc(Cl)ccc3Cl)cc2)nc(Cl)c1CC(=O)O [Example 1-44]	< 10	96 °C
CN(C)c1nc(Cc2ccc(NC(=O)/C=C/c3ccccc3)cc2)nc(N2CCOCC2)c1CC(=O)O [Example 7-21]	10 to 100	129 to 132 °C
CN(C)c1nc(Cc2ccc(NC(=O)c3cccc(Oc4ccccc4)c3)cc2)nc(N2CCCC2)c1CC(=O)O [Example 7-23]	10 to 100	123 to 125 °C
CN(CC(=O)NC1CCCC1)c1nc(Cc2ccc(NC(=O)c3cc4ccccc4[nH]3)cc2)nc(Cl)c1CC(=O)O [Example 1-26]	< 10	146 °C
CC(C)CC(=O)Nc1ccc(Cc2ncc(CC(=O)[O-])c(N3CCCC3)n2)cc1.[Na+] [Example 2-32]	10 to 100	148 to 150 °C
CC(C)(C)CC(=O)Nc1ccc(Cc2ncc(CC(=O)O)c(N3CCCC3)n2)cc1 [Example 2-35]	10 to 100	147 to 150 °C
CN(C)c1nc(Cc2ccc(NC(=O)/C=C/c3ccccc3)cc2)ncc1CC(=O)O [Example 2-10]	< 10	135 to 140 °C
O=C(O)Cc1c(Cl)nc(Cc2ccc(NC(=O)/C=C/c3ccccc3)cc2)nc1N1CCCC1 [Example 1-60]	< 10	120 °C
CN(C)c1nc(Cc2ccc(NC(=O)OCc3ccccc3)cc2)ncc1CC(=O)O [Example 9-1, [2-(4-{[(Benzyloxy)carbonyl]amino}benzyl)-4-(dimethylamino)pyrimidin-5-yl]acetic acid]	10 to 100	101 to 104 °C
O=C(O)Cc1c(Cl)nc(Cc2ccc(NC(=O)c3ccc(-n4cccc4)cc3)cc2)nc1N1CCCC1 [Example 1-57]	< 10	217 °C
CC(C)C(=O)Nc1ccc(Cc2nc(Cl)c(CC(=O)O)c(N(C)CC(=O)NC3CCCC3)n2)cc1 [Example 1-5]	> 500	> 142 °C
CN(C)c1nc(Cc2ccc(NC(=O)c3ccc(C(F)(F)F)cc3)cc2)ncc1CC(=O)O [Example 2-13]	< 10	149 to 153 °C
CN(CC(=O)NC1CCCC1)c1nc(Cc2ccc(NC(=O)c3ccco3)cc2)nc(Cl)c1CC(=O)O [Example 1-11]	100 to 500	> 119 °C
CN(C)c1nc(Cc2ccccc2NC(=O)c2ccc3ccccc3c2)nc(Cl)c1CC(=O)O [Example 1-50]	> 500	295 °C
CN(C)c1nc(Cc2ccc(NC(=O)c3ccc(Cl)c(Cl)c3)cc2)ncc1CC(=O)O [Example 2-8]	< 10	140 °C
CN(CC(=O)NC1CCCC1)c1nc(Cc2ccc(NC(=O)/C=C/c3ccccc3)cc2)nc(Cl)c1CC(=O)O [Example 1-17]	< 10	142 °C
CN(CC(=O)NC1CCCC1)c1nc(Cc2ccc(NC(=O)c3cc4ccccc4o3)cc2)nc(Cl)c1CC(=O)O [Example 1-25]	< 10	118 °C
CN(C)c1nc(Cc2ccc(NC(=O)c3cccc(Cl)c3Cl)cc2)nc(Cl)c1CC(=O)O [Example 1-43]	100 to 500	101 °C
CN(C)c1nc(Cc2ccc(NC(=O)c3ccc(Cl)c(Cl)c3)cc2)nc(Cl)c1CC(=O)O [Example 1-34]	< 10	> 168 °C
COCc1nc(Cc2ccc(NC(=O)OCc3ccccc3)cc2)nc(N(C)C)c1CC(=O)O [Example 9-5]	> 500	88 to 90 °C
CN(CC(=O)NC1CCCC1)c1nc(Cc2ccc(NC(=O)c3ccc(C#N)cc3)cc2)nc(Cl)c1CC(=O)O [Example 1-27]	< 10	101 °C
CN(CC(=O)NC1CCCC1)c1nc(Cc2ccc(NS(=O)(=O)c3ccc4ccccc4c3)cc2)nc(Cl)c1CC(=O)O [Example 1-23]	> 500	116 °C

Structure (SMILES)	IC50 (human CRTH2) [nM]	melting point
CN(CC(=O)NC1CCCC1)c1nc(Cc2ccc(NC(=O)c3ccc(Cl)c(Cl)c3)cc2)nc(Cl)c1CC(=O)O [Example 1-19]	< 10	144 °C
CC(c1ccc(NC(=O)c2ccc3ccccc3n2)cc1)c1ncc(CC(=O)O)c(N(C)C)n1 (stereo not drawn) [Example 2-24]	10 to 100	120 to 123 °C
CN(C)c1nc(Cc2ccc(NC(=O)c3ccc(F)cc3)cc2)nc(N2CCCC2)c1CC(=O)O [Example 7-28]	100 to 500	132 to 135 °C
CN(C)c1nc(Cc2ccc(NC(=O)c3ccc4ccccc4n3)cc2)ncc1CC(=O)O [Example 2-9]	10 to 100	136 to 144 °C
O=C(O)Cc1cnc(Cc2ccc(NC(=O)c3ccc4ccccc4c3)cc2)nc1N1CCCC1 [Example 2-31]	< 10	150 to 151 °C
O=C(O)Cc1cnc(Cc2ccc(NC(=O)CC3CC3)cc2)nc1N1CCCC1 [Example 2-33]	100 to 500	145 to 148 °C (dec.)
O=C(O)Cc1c(Cl)nc(Cc2ccc(NC(=O)/C=C/c3ccc(Cl)cc3)cc2)nc1N1CCCC1 [Example 1-65]	< 10	188 to 190 °C
CC(C)NC(=O)CN(C)c1nc(Cc2ccc(NC(=O)c3ccc4ccccc4c3)cc2)nc(Cl)c1CC(=O)O [Example 1-7]	< 10	181 °C
CN(C)c1nc(Cc2ccc(NC(=O)c3ccc(Oc4ccccc4)cc3)cc2)nc(N2CCCC2)c1CC(=O)O [Example 7-24]	< 10	137 to 140 °C
CN(C)c1nc(Cc2ccc(NC(=O)c3ccc(C(F)(F)F)cc3)cc2)nc(N2CCOCC2)c1CC(=O)O [Example 7-20]	10 to 100	212 to 213 °C (dec.)
COc1ccc(C(=O)Nc2ccc(Cc3nc(Cl)c(CC(=O)O)c(N(C)CC(=O)NC4CCCC4)n3)cc2)cc1 [Example 1-20]	< 10	104 °C
O=C(O)Cc1c(Cl)nc(Cc2ccc(NC(=O)c3ccc(Cl)cc3)cc2)nc1N1CCCC1 [Example 1-63]	< 10	173 °C
CN(C)c1nc(Cc2ccc(NC(=O)c3cccc(-c4ccccc4)c3)cc2)nc(N2CCCC2)c1CC(=O)O [Example 7-15]	10 to 100	147 to 179 °C
CCc1nc(Cc2ccc(NC(=O)OCc3ccccc3)cc2)nc(N(C)C)c1CC(=O)O [Example 9-6]	> 500	120 to 123 °C
CN(C)c1nc(Cc2ccc(NC(=O)c3ccc(Cl)cc3)cc2)nc(N2CCOCC2)c1CC(=O)O [Example 7-18]	100 to 500	216 to 218 °C (dec.)
O=C(O)Cc1cnc(Cc2ccc(NC(=O)c3ccc(Cl)cc3)cc2)nc1N1CCCC1 [Example 2-28]	< 10	151 to 153 °C
CN(C)c1nc(Cc2ccc(NC(=O)/C=C/c3ccc(C(F)(F)F)cc3)cc2)nc(Cl)c1CC(=O)O [Example 1-68]	< 10	> 199 °C
CN(CC(=O)NC1CCCC1)c1nc(Cc2ccc(NC(=O)c3ccccc3)cc2)nc(Cl)c1CC(=O)O [Example 1-9]	10 to 100	> 140 °C
CCCC(=O)Nc1ccc(Cc2ncc(CC(=O)O)c(N3CCCC3)n2)cc1 [Example 2-36]	100 to 500	130 to 133 °C
CN(C)c1nc(Cc2ccc(NC(=O)c3cc(Cl)cc(Cl)c3)cc2)nc(Cl)c1CC(=O)O [Example 1-46]	< 10	> 99 °C
CN(C)c1ccc(C(=O)Nc2ccc(Cc3nc(Cl)c(CC(=O)O)c(N(C)C)n3)cc2)cc1 [Example 1-37]	< 10	> 111 °C
CC(=O)Nc1ccc(C(=O)Nc2ccc(Cc3nc(Cl)c(CC(=O)O)c(N4CCCC4)n3)cc2)cc1 [Example 1-54]	10 to 100	189 °C
O=C(O)Cc1cnc(Cc2ccc(NC(=O)c3ccc(C(F)(F)F)cc3)cc2)nc1N1CCCC1 [Example 2-30]	< 10	156 to 158 °C (dec.)
CN(C)c1nc(Cc2ccc(NC(=O)/C=C/c3ccc(Cl)cc3)cc2)nc(N2CCCC2)c1CC(=O)O [Example 7-10]	< 10	146 to 149 °C
CN(CC(=O)NC1CCCCC1)c1nc(Cc2ccc(NC(=O)c3ccc4ccccc4c3)cc2)nc(Cl)c1CC(=O)O [Example 1-8]	< 10	134 °C

Reference: patent US7960393B2, “Pyrimidine derivatives useful for the treatment of diseases mediated by CRTH2” (Actimis Pharmaceuticals, Inc., priority 2002, dated 2011)
